Measurements published in patent publication US8492378B2, “GSK-3β inhibitor” (Takeda Pharmaceutical Company Limited, priority 2006, dated 2013).

Experiments:
Experiment in all cases: Serine threonine kinase inhibitory activity ([γ-33P]ATP)
Type in all cases: biochemical
TAK1 = TAK1 (Homo sapiens, UniProt O43318); details: read-out: 50% inhibitory activity against other kinases: TAK1
Protocol: (§1) Inhibitory action on various purified proteins of serine, threonine kinases (p38α, JNK1, IKKβ, ASK1, TAK1, MEKK1, PKCθ, GSK-3β, PLK1, TTK, Aurora A, MEK1, MEK5, B-RAF, ERK1) was examined. As a reaction mixture, 37.5 μL of 25 mM HEPES (pH 7.5), 10 mM magnesium acetate, 1 mM DTT, each concentration of purified protein and a synthesis substrate were used. The mixture was reacted in the presence or absence of a test compound (2.5 μL/the reaction mixture) dissolved in DMSO at each concentration at room temperature for 5 min. Further, 10 μL of a mixture of 2.5 μM ATP and 10 μCi/ml [γ-^33P]ATP (DAIICHI PURE CHEMICALS) was added and the mixture was reacted at room temperature for 30 min. After quenching the reaction, the amount of phosphorylated peptide was measured by Top-Count (Packard). The concentration of the test compound necessary for 50% inhibition (IC50 value) was calculated by PRISM 3.0 (GraphPad Software).

ASK1 = ASK1 (Homo sapiens, UniProt Q99683); details: read-out: 50% inhibitory activity against other kinases: ASK1
Protocol: as §1

JNK1 = JNK1 (Homo sapiens, UniProt P45983); details: read-out: 50% inhibitory activity against other kinases: JNK1
Sequence of JNK1 (P45983 whole entry): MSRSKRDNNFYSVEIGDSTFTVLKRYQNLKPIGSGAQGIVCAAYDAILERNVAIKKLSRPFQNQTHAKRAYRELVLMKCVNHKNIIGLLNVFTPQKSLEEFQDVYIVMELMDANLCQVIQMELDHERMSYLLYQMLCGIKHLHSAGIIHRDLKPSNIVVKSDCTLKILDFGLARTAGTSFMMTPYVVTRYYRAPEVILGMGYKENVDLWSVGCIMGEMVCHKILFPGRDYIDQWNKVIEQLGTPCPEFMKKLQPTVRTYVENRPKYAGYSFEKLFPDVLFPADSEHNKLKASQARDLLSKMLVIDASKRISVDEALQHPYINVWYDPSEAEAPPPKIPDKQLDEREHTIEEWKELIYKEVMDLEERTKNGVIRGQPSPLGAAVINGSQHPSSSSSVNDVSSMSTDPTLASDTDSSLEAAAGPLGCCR
Protocol: as §1

IKKβ = biological target: T1, IKKβ (Homo sapiens, UniProt O14920); details: read-out: 50% inhibitory activity against other kinases: IKKβ
T1 sequence (O14920 1-756): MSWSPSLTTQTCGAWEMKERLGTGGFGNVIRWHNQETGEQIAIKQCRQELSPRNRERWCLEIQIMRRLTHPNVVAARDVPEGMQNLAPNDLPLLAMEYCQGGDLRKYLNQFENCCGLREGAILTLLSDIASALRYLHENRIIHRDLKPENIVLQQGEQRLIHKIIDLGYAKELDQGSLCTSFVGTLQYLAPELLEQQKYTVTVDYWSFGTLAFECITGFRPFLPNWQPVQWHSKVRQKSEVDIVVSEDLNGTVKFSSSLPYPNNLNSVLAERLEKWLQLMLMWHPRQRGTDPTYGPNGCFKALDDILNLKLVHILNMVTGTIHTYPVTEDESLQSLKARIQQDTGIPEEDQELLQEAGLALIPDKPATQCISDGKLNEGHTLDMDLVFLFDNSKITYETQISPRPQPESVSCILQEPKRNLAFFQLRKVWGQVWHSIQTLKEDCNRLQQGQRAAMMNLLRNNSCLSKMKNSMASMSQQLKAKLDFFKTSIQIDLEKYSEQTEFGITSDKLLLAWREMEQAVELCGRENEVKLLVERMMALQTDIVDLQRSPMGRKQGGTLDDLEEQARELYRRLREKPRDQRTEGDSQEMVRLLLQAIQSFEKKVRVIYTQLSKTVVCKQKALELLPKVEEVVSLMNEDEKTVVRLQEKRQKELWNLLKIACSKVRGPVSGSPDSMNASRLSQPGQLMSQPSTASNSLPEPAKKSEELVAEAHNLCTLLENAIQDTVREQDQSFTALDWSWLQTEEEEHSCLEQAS
Protocol: as §1

PKCθ = PKCθ (Homo sapiens, UniProt Q04759); details: read-out: 50% inhibitory activity against other kinases: PKCθ
Sequence of PKCθ (Q04759 whole entry): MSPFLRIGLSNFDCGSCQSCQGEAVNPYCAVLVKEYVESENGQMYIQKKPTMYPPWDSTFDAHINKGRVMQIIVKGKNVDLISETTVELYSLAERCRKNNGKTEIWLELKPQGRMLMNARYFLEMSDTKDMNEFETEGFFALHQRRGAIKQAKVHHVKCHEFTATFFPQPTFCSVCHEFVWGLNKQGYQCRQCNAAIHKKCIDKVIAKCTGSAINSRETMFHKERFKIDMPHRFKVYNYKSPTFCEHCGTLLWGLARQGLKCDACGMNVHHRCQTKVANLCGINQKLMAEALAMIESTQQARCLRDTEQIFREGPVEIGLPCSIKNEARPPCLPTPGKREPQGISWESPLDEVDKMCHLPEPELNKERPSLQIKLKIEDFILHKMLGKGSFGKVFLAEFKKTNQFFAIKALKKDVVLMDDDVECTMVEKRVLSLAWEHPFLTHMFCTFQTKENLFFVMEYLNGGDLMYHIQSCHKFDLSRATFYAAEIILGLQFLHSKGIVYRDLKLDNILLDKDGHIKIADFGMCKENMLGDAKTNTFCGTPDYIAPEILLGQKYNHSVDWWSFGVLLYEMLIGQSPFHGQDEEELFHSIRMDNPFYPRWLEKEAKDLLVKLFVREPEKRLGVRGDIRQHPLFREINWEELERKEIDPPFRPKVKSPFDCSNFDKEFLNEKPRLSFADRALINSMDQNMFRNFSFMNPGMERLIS
Protocol: as §1

MEKK1 = MEKK1 (Homo sapiens, UniProt Q13233); details: read-out: 50% inhibitory activity against other kinases: MEKK1
Sequence of MEKK1 (Q13233 whole entry, species assumed): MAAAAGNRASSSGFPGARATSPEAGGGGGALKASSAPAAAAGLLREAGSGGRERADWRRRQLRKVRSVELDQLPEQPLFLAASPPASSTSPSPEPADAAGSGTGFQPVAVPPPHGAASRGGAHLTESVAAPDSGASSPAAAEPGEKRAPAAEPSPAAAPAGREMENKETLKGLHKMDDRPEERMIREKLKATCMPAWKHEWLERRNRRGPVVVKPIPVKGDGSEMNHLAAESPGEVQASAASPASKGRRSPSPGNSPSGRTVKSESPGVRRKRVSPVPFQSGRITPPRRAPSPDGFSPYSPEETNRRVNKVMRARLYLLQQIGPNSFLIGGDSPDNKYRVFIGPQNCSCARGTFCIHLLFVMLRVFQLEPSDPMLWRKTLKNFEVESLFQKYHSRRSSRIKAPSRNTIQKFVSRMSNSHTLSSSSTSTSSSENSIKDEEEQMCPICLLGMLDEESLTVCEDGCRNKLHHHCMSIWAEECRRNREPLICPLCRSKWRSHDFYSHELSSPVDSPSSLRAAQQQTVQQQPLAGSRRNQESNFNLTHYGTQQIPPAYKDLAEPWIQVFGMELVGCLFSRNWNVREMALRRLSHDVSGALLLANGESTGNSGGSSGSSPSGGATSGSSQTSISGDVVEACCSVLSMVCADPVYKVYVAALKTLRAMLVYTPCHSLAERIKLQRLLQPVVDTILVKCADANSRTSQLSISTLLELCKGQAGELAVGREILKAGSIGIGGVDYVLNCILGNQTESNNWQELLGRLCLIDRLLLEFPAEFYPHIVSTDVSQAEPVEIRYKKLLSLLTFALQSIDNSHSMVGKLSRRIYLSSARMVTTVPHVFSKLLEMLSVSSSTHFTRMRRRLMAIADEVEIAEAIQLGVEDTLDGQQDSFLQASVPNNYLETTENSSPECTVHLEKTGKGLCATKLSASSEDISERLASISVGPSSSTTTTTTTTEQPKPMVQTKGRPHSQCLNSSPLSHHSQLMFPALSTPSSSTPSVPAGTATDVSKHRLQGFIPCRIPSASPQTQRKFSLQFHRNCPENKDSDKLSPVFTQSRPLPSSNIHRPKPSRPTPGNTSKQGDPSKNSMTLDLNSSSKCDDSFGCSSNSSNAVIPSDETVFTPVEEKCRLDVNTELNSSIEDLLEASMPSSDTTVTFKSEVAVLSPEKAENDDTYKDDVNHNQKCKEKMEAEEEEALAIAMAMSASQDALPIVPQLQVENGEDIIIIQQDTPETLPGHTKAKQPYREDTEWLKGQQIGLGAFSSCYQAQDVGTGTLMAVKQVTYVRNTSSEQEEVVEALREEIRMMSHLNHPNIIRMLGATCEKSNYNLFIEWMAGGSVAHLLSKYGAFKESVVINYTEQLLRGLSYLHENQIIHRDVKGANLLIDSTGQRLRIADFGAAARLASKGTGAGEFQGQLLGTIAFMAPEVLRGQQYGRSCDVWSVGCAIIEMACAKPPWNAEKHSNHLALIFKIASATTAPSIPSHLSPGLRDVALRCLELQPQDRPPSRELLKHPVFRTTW
Protocol: as §1

Aurora A = Aurora A (Homo sapiens, UniProt O14965); details: read-out: 50% inhibitory activity against other kinases: Aurora A
Sequence of Aurora A (O14965 whole entry): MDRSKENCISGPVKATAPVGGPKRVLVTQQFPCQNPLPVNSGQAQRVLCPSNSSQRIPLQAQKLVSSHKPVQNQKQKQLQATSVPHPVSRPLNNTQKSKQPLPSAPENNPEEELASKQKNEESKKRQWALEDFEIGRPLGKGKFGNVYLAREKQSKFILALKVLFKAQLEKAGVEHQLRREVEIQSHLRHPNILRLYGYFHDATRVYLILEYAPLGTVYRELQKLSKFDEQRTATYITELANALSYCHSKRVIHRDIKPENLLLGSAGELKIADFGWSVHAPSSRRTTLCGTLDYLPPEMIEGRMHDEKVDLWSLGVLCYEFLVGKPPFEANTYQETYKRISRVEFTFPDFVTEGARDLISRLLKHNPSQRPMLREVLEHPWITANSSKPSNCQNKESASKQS
Protocol: as §1

p38α = p38α (Homo sapiens, UniProt Q16539); details: read-out: 50% inhibitory activity against other kinases: p38α
Sequence of p38α (Q16539 whole entry): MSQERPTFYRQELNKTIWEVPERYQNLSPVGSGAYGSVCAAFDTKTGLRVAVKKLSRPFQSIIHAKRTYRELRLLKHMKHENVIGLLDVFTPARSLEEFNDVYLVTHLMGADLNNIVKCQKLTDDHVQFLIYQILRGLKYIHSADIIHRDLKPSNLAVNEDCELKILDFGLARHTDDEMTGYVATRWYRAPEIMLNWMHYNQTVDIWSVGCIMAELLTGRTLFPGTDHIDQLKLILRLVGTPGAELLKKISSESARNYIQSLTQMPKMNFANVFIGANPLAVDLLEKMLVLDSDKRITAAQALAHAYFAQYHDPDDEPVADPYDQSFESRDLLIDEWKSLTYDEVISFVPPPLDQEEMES
Protocol: as §1

ERK1 = ERK1 (Homo sapiens, UniProt P27361); details: read-out: 50% inhibitory activity against other kinases: ERK1
Sequence of ERK1 (P27361 whole entry): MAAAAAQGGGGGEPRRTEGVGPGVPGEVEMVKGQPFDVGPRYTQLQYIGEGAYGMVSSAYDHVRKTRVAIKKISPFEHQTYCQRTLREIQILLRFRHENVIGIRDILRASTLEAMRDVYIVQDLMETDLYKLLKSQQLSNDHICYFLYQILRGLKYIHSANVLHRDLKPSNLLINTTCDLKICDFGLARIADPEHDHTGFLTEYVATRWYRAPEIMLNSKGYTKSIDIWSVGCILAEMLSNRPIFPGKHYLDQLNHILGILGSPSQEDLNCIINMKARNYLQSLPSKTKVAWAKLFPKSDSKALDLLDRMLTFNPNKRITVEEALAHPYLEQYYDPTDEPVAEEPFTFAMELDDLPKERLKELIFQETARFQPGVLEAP
Protocol: as §1

MEK5 = MEK5 (Homo sapiens, UniProt Q13163); details: read-out: 50% inhibitory activity against other kinases: MEK5
Sequence of MEK5 (Q13163 whole entry): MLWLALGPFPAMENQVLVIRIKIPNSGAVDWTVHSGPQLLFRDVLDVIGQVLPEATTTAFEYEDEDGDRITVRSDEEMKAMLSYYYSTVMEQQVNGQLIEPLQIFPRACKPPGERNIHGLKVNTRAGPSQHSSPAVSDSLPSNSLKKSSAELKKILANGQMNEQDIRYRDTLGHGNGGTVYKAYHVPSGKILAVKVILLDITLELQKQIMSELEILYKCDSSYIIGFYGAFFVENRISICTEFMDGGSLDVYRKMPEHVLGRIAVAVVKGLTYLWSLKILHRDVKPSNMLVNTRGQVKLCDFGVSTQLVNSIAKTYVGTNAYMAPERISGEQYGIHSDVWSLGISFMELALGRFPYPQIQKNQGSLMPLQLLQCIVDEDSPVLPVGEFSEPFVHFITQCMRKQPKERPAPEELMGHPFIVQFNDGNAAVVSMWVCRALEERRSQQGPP
Protocol: as §1

PLK1 = PLK1 (Homo sapiens, UniProt P53350); details: read-out: 50% inhibitory activity against other kinases: PLK1
Protocol: as §1

TTK = biological target: T2, TTK (Homo sapiens, UniProt P33981); details: read-out: 50% inhibitory activity against other kinases: TTK
T2 sequence (P33981 1-857): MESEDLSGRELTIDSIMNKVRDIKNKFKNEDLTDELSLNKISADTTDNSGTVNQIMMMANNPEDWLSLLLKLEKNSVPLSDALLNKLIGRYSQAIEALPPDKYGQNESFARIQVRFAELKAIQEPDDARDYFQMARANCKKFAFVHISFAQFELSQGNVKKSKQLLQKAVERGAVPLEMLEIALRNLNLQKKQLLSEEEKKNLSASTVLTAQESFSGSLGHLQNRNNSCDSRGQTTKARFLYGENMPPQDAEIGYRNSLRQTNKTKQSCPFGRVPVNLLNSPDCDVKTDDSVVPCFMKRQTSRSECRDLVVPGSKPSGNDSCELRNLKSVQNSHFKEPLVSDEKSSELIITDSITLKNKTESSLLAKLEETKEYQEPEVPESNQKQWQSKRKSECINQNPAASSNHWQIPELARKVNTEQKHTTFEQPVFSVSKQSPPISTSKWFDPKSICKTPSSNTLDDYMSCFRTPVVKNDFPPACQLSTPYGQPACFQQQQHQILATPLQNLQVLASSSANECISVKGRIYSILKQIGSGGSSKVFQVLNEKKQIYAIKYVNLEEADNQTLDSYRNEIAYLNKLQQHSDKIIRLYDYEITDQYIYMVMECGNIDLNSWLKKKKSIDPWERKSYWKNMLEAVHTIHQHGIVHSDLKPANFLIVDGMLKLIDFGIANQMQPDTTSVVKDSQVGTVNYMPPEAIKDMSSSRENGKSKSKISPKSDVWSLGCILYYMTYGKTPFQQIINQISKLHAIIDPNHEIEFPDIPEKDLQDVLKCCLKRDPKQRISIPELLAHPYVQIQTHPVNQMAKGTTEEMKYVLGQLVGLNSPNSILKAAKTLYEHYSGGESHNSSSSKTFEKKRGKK
Protocol: as §1

MEK1 = MEK1 (Homo sapiens, UniProt Q02750); details: read-out: 50% inhibitory activity against other kinases: MEK1
Protocol: as §1

B-RAF = B-RAF (Homo sapiens, UniProt P15056); details: read-out: 50% inhibitory activity against other kinases: B-RAF
Sequence of B-RAF (P15056 whole entry): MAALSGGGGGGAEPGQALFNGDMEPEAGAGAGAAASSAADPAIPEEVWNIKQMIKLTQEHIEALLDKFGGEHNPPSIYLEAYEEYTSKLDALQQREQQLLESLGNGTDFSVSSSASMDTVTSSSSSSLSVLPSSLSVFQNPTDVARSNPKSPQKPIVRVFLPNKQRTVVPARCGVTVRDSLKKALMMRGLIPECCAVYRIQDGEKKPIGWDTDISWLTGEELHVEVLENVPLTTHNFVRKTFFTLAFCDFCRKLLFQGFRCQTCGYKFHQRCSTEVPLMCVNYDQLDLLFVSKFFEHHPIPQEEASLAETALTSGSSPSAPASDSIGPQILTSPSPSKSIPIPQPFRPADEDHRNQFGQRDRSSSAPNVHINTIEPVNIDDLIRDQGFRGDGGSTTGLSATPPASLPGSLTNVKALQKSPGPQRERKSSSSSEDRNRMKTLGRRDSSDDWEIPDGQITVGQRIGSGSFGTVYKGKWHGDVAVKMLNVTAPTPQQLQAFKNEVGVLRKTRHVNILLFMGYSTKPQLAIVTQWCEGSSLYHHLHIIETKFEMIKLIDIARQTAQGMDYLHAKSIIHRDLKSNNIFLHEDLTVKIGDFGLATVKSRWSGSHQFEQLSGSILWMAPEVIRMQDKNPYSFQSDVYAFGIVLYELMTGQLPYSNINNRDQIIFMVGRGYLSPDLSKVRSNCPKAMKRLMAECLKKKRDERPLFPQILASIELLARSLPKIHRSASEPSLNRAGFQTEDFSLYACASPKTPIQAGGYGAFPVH
Protocol: as §1

GSK-3β = GSK-3β (Homo sapiens, UniProt P49841); details: [γ-33P]ATP kinase panel; read-out: IC50 values against GSK-3β
Protocol: as §1, with “Further, 10 μL of a mixture of 2.5 μM ATP and 10 μCi/ml [γ-^33P]ATP (DAIICHI PURE CHEMICALS) was added and the mixture was reacted at room temperature for 30 min.” left out, “(Packard).” for “(Packard). The concentration of the test compound necessary for 50% inhibition (IC50 value) was calculated by PRISM 3.0 (GraphPad Software).”

IC50 (TAK1) [µM] | IC50 (ASK1) [µM] | IC50 (JNK1) [µM] | IC50 (IKKβ) [µM] | IC50 (PKCθ) [µM] | IC50 (MEKK1) [µM] | IC50 (Aurora A) [µM] | IC50 (p38α) [µM] | IC50 (ERK1) [µM] | IC50 (MEK5) [µM] | IC50 (PLK1) [µM] | IC50 (TTK) [µM] | IC50 (MEK1) [µM] | IC50 (B-RAF) [µM] | IC50 (GSK-3β) [µM] | Structure (SMILES)
> 10 | > 10 | > 10 | > 10 | > 10 | > 10 | > 10 | > 10 | > 10 | > 10 | > 10 | > 10 | > 10 | > 10 | 0.19 | COc1ccc(-c2coc3ccc(-c4nnc(SC)o4)cc23)cc1 [Example 165, 2-[3-(4-methoxyphenyl)-1-benzofuran-5-yl]-5-(methylthio)-1,3,4-oxadiazole]
> 10 | > 10 | > 10 | > 10 | > 10 | > 10 | > 10 | > 10 | > 10 | > 10 | > 10 | > 10 | > 10 | > 10 | 0.14 | COc1ccc(CSc2nnc(-c3ccnc(N)c3)o2)cc1F [Example 209, 4-[5-[(3-fluoro-4-methoxybenzyl)thio]-1,3,4-oxadiazol-2-yl]pyridin-2-amine]
> 10 | > 10 | > 10 | > 10 | > 10 | > 10 | > 10 | > 10 | > 10 | > 10 | > 10 | > 10 | > 10 | > 10 | – | COc1ccc(CSc2nnc(-c3ccc4c(c3)OCO4)o2)cc1F [Reference Example 71, 2-(1,3-benzodioxol-5-yl)-5-[(3-fluoro-4-methoxybenzyl)thio]-1,3,4-oxadiazole, reference compound]
